Patent EP3974434B1, “MACROLIDE DERIVATIVES, PREPARATION METHOD AND APPLICATION THEREOF” (Zhejiang Hisun Pharmaceutical Co., Ltd., priority 2019, dated 2020)

How the values were obtained:
Format in all cases: biochemical
TRKA(G595R) = target: T1, TRKA(G595R) (Homo sapiens, UniProt P04629, G595R); test: HTRF KinEASE-TK kinase activity inhibition assay, TRKA(G595R); conditions: ATP 7 µM
T1 construct: purchased SignalChem N16-12BG-10
From the text: (§1) The following method was used to determine the inhibition degrees of the compounds of the present invention on the activity of recombinant human NTRK family kinase in vitro. In this method, HTRF®KinEASE-TK tyrosine kinase kit (article number: 62TK0PEB) of Cisbio company was used, and the principle of the kit was based on time-resolved fluorescence resonance energy transfer (TF-FRET), and the inhibition of the compounds on the activity of the NTRK kinase was reflected by determining a phosphorylation degree of a biotinylated polypeptide substrate mediated by NTRK kinase. For detailed experimental operation, please refer to the kit instruction. Recombinant human wild-type NTRK proteins were purchased from Carna bioscience (the article numbers were TRKA #08-186, TRKB #08-187 and TRKC #08-197 respectively), and recombinant human mutant NTRK proteins were purchased from SignalChem (the article numbers were TRKA G595R #N16-12BG-10, TRKA G667C # N16-12CG-10, and TRKC G623R # N18-12CH-10 respectively).
(§2) The experimental methods were operated according to the steps in the kit instruction, and were briefly described as follows: a test compound was first dissolved in DMSO to prepare a storage solution, and then diluted in gradient with a buffer provided in the kit. A final concentration of the test compound in the reaction system ranged from 1,000 nM to 0.004 nM. An ATP Km value concentration of each NTRK protein was determined by using an ATP solution diluted in gradient (Sangon Biotech (Shanghai) Co., Ltd., A600311). According to the Km value obtained, the ATP concentrations in the reaction system were set as 100 µM for TRKA, 10 µM for TRKB, 50 µM for TRKC, 7 µM for TRKA(G595R), 1 µM for TRKA(G667C) and 100 µM for TRKC(G623R). The reaction was carried out in a 384-well microplate. Firstly, the compound and a certain amount of corresponding NTRK protein were added to the wells and incubated for 5 minutes to 10 minutes at room temperature. Then, the ATP solution and the biotinylated polypeptide substrate solution were added to the reaction solution and incubated with shaking at room temperature for 60 minutes. Then, an anti-phosphorylated tyrosine antibody coupled with a europium compound and streptavidin coupled with modified allophycocyanin XL665 were added to the reaction, and continuously incubated with shaking at room temperature for 1 hour. After incubation, fluorescence intensity values of each well at an excitation wavelength of 304 nm, and emission wavelengths of 620 nm and 665 nM were determined in a TF-FRET mode on a microplate reader. Compared with the fluorescence intensity ratio of a control group (0.1% DMSO), the percentage inhibition rates of the compound at each concentration were calculated, and the IC50 value of the compound was obtained by performing nonlinear regression analysis for logarithmic value of the compound concentration - inhibition rate by GraphPad Prism 5 software, which can be seen in Table 1. Table 1 IC50 data of the compounds of the present invention on TRK enzyme activity inhibition

TRKB = target: T2, TRKB (Homo sapiens, UniProt Q16620); test: HTRF KinEASE-TK kinase activity inhibition assay, TRKB; conditions: ATP 10 µM
T2 construct: purchased Carna bioscience 08-187
From the text: as §1, §2

TRKC = target: T3, TRKC (Homo sapiens, UniProt Q16288); test: HTRF KinEASE-TK kinase activity inhibition assay, TRKC; conditions: ATP 50 µM
T3 construct: purchased Carna bioscience 08-197
From the text: as §1, §2

TRKA(G667C) = target: T4, TRKA(G667C) (Homo sapiens, UniProt P04629, G667C); test: HTRF KinEASE-TK kinase activity inhibition assay, TRKA(G667C); conditions: ATP 1 µM
T4 construct: purchased SignalChem N16-12CG-10
From the text: as §1, §2

TRKC(G623R) = target: T5, TRKC(G623R) (Homo sapiens, UniProt Q16288, G623R); test: HTRF KinEASE-TK kinase activity inhibition assay, TRKC(G623R); conditions: ATP 100 µM
T5 construct: purchased SignalChem N18-12CH-10
From the text: as §1
as §2, with “Then, an anti-phosphorylated tyrosine antibody coupled with a europium compound and streptavidin coupled with modified allophycocyanin XL665 were added to the reaction, and continuously incubated with shaking at room temperature for 1 hour.” left out, “Table 1 IC50 data of the compounds of the present invention on TRK enzyme activity inhibition” left out

TRKA = target: T6, TRKA (Homo sapiens, UniProt P04629); test: HTRF KinEASE-TK kinase activity inhibition assay, TRKA; conditions: ATP 100 µM
T6 construct: purchased Carna bioscience 08-186
From the text: as §1, §2

T4 sequence (P04629 33-796 G667C): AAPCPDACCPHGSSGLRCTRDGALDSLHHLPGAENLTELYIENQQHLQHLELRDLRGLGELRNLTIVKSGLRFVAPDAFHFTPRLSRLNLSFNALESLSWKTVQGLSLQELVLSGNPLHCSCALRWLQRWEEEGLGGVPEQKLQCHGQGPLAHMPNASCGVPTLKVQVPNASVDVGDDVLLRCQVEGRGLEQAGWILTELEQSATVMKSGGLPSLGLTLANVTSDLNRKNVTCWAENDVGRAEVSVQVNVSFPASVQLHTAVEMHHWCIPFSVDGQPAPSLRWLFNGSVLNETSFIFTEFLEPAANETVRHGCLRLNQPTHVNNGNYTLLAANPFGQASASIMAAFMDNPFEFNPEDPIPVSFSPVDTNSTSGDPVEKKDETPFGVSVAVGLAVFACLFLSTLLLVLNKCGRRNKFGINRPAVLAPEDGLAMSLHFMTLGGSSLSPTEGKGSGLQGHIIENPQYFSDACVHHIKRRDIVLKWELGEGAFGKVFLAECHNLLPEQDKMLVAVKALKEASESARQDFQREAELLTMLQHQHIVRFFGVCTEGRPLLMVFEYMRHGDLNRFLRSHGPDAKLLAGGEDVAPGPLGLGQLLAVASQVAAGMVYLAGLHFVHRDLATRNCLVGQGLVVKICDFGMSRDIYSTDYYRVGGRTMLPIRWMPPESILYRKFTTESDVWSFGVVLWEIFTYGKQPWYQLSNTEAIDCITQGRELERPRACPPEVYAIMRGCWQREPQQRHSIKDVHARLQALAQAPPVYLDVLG
T1 sequence (P04629 33-796 G595R): as the sequence (P04629 33-796 G667C) above, with G563R, C635G counted along it
T5 sequence (Q16288 32-839 G623R): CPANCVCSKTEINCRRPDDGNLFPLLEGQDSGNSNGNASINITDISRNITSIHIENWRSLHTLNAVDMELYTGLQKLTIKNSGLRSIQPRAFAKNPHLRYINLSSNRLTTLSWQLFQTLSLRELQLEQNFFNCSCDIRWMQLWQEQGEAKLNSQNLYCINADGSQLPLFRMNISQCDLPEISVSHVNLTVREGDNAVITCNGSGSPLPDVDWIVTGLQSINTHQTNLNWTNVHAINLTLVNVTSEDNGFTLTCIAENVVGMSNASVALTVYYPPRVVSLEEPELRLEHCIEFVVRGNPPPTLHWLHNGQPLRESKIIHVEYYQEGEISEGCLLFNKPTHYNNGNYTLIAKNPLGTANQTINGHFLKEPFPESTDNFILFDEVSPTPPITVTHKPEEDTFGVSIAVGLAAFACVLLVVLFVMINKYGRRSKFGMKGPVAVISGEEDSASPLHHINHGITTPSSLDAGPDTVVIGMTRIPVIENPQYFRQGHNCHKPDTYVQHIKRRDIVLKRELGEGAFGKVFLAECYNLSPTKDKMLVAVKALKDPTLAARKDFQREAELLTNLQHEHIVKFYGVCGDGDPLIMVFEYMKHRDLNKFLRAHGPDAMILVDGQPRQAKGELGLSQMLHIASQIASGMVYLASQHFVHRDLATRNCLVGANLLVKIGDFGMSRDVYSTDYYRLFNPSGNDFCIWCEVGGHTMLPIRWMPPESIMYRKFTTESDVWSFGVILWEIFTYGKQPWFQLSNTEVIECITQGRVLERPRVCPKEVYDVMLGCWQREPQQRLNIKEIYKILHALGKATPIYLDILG
T2 sequence (Q16620 32-822): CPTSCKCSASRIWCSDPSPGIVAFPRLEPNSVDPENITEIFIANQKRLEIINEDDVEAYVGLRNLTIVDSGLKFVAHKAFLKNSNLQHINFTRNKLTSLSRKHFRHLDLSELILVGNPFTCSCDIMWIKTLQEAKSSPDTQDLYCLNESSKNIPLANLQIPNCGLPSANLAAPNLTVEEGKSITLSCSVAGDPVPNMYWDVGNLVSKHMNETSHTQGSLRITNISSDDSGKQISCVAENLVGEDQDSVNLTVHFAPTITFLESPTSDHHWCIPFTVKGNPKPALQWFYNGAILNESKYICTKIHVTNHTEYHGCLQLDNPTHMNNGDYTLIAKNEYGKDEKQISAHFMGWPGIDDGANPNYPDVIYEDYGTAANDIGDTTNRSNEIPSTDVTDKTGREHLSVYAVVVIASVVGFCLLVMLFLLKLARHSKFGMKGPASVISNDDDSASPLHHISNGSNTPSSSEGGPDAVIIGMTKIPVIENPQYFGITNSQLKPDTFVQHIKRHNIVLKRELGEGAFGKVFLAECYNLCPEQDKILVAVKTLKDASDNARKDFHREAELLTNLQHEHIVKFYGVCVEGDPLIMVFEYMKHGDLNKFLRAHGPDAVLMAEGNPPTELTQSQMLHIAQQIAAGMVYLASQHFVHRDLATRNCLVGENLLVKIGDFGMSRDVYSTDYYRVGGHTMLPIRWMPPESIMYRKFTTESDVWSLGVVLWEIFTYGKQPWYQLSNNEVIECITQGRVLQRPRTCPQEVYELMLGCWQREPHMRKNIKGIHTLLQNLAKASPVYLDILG
T6 sequence (P04629 33-796): as the sequence (P04629 33-796 G667C) above, with C635G counted along it
T3 sequence (Q16288 32-839): as the sequence (Q16288 32-839 G623R) above, with R592G counted along it

IC50 (TRKA(G595R)): 4.97 nM
IC50 (TRKB): 0.36 nM
IC50 (TRKC): 0.52 nM
IC50 (TRKA(G667C)): 4.6 nM
IC50 (TRKC(G623R)): 7.4 nM
IC50 (TRKA): 0.98 nM
Structure (SMILES): C[C@H]1Nc2ccn3ncc(c3n2)C(=O)NCC2(C)Cc3cc(Cl)cc1c3O2 (stereo partly drawn) [Example 22, (3R)-6-chloro-3,11-dimethyl-10-oxa-2,13,17,18,21-pentaazapentacyclo[13.5.2.1^8,11.0^4,9.0^18,22]tricosa-1 (21),4,6,8,15(22),16,19-heptaen-14-one]
